Results taken from US20210253598A1, “ARYL ANNULATED MACROCYCLIC INDOLE DERIVATIVES” (priority 2017, published 2021).
Read-outs that look alike come from different tables or passages of the source.

Assays:
SUDHL5 [1] = assay: Induction of cytotoxicity in SUDHL5 cells, CellTiter-Glo (Assay 6); type: cell-based; settings: Homo sapiens, SU-DHL-5, 5 h, SUDHL5, 5 hours incubation, median, read-out: Cytotox SUDHL5 [M] (median)
In short: (§1)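 Short-exposure cytotoxicity: 5 h compound, 37° C, humidified; CellTiter-Glo luminescence; cell-free medium control; edge wells omitted.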

BCL-XL = BCL-XL (Homo sapiens, UniProt Q07817); assay: Protein-protein interaction assay BCL-XL/Bad BH3 peptide, TR-FRET (BCL-XL assay, Assay 2); type: binding; settings: His-BCL-XL / Bad BH3 peptide, median
Sequence of BCL-XL (Q07817 1-212): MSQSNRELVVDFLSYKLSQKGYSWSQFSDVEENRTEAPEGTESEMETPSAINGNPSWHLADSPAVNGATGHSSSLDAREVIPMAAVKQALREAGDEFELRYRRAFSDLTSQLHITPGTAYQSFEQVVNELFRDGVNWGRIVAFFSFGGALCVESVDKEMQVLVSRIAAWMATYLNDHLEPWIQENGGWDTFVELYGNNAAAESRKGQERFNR
Description: Protein-Protein Interaction Assay: BCL-XL/Bad BH3 Peptide (BCL-XL Assay)
The dose-dependent inhibition by the compounds described in this invention of the interaction between BCL-XL and the BH3 domain of Bad (both human) was determined using a steady state binding competition assay with time-resolved fluorescence energy transfer (TR-FRET) readout. For that purpose BCL-XL (amino acids 1-212, C-terminal fused to a hexahistidine (6×His) tag (SEQ ID 3) and a synthetic Bad BH3-derived peptide of sequence Biotin-PEG2-PEG2-[sequence]-Nle-[sequence]-amide (SEQ ID 4) served as protein receptor and tracer ligand respectively. The recombinant BCL-XL protein (expressed in E. coli) was purchased from BPS Bioscience (San Diego, Calif., USA). The Bad BH3-derived peptide can be obtained from e.g. Biosyntan (Berlin, Germany).
For that, 100-fold concentrated DMSO solutions were prepared by serial dilutions (1:3.4) of a 2 mM stock solution in a clear, 384-well microtiter plate (Greiner Bio-One, Frickenhausen, Germany). From there, 50 nl were transferred in a dark test plate (Greiner Bio-One, Frickenhausen, Germany). The assay was initiated by addition of 2 μl of a 2,5-fold concentrated His-BCL-XL solution (usually for a 1 nM end concentration in 5 μl reaction volume) in aqueous assay buffer [50 mM Tris/HCl pH 7, 100 mM sodium chloride (NaCl), 50 mM potassium fluoride (KF), 0.005% Tween-20, 2 mM DTT, 0.1% bovine gamma globulin (BGG)] to the compounds in the assay plate. This was followed by a 10-minute incubation step at 22° C. for pre-equilibration of the putative complex between His-BCL-XL and the compounds.
The mixture was incubated in the dark for one hour at 22° C. and then overnight at 4° C. The formation of BCL-XL/Bad complexes was determined by measuring the resonance energy transfer of the anti-His- Eu-cryptate antibody to the streptavidin-XL665 present in the reaction. For that purpose, the fluorescence emission at 620 nm and 665 nm after excitation at 330-350 nm was measured in a TR-FRET measuring instrument, for instance a Rubystar or a Pherastar (both from BMG Lab Technologies, Offenburg, Germany) or a Viewlux (Perkin-Elmer). The ratio of the emission at 665 nm and at 622 nm was used as indicator of the amount of BCL-XL/Bad complexes present.
The resulting data (ratio) were normalized, taking 0% inhibition as the mean value of control measurements (usually 32 data points) where all reagents were included. In this case 50 nl DMSO were used instead of compounds. […] IC50 values were determined by regression analysis based on a 4 parameter equation (minimum, maximum, IC50, Hill; Y=Max+(Min−Max)/(1+(X/IC50)^Hill) using the Screener Software (Genedata).

SUDHL10 [2] = assay: Induction of caspase-3/7 activity in SUDHL10 cells (Assay 4); type: cell-based; settings: Homo sapiens, SU-DHL10, 3 h, SUDHL10, 3 hours treatment, Caspase-Glo 3/7; median; read-out: Caspase SUDHL10 [M] (median)
In short: (§2)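 Luminescent Caspase-Glo 3/7 read-out in SUDHL5 and SUDHL10 cells after 3 h compound exposure at 37 °C, followed by 1 h reagent incubation.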

AMO-1 = assay: Anti-proliferative effect in AMO-1 cells, CellTiter-Glo (Assay 7); type: cell-based; settings: AMO-1, 72 hours incubation, CellTiter-Glo, several values per example, read-out: Antiproli AMO-1
In short: (§3)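 Cells were plated and incubated overnight at 37 °C alongside a day 0 reference plate, then exposed to compound for 72 h. Viability was read by CellTiter-Glo luminescence, and IC50s were calculated using day 0 values and DMSO controls as references.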

A2780 = assay: Anti-proliferative effect in A2780 cells, CellTiter-Glo (Assay 7); type: cell-based; settings: Homo sapiens, A2780, 72 h, A2780, 72 hours incubation, CellTiter-Glo; several values per example; read-out: Antiproli A2780
In short: as §3

SUDHL5 [3] = assay: Anti-proliferative effect in SUDHL5 cells, CellTiter-Glo (Assay 7); type: cell-based; settings: Homo sapiens, SU-DHL-5, 72 h, SUDHL5, 72 hours incubation, CellTiter-Glo; median; read-out: Antiproli SUDHL5 [M] (median)
In short: as §3

BCL-2 = BCL-2 (Homo sapiens, UniProt P10415); assay: Protein-protein interaction assay BCL-2/Bad BH3 peptide, TR-FRET (BCL-2 assay, Assay 3); type: binding; settings: His-BCL-2 / Bad BH3 peptide, median
Sequence of BCL-2 (P10415 1-211): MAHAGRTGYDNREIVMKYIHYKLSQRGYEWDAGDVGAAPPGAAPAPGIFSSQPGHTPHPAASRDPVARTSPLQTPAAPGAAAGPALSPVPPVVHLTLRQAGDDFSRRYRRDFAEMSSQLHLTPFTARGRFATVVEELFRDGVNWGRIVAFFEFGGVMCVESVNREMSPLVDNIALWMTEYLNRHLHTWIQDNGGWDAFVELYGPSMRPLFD

SUDHL10 [4] = assay: Induction of cytotoxicity in SUDHL10 cells, CellTiter-Glo (Assay 6); type: cell-based; settings: Homo sapiens, SU-DHL10, 5 h, SUDHL10, 5 hours incubation, median, read-out: Cytotox SUDHL10 [M] (median)
In short: as §1

SUDHL5 [5] = assay: Induction of caspase-3/7 activity in SUDHL5 cells (Assay 4); type: cell-based; settings: Homo sapiens, SU-DHL-5, 3 h, SUDHL5, 3 hours treatment, Caspase-Glo 3/7; median; read-out: Caspase SUDHL5 [M] (median)
In short: as §2

MCL-1 = MCL-1 (Homo sapiens, UniProt Q07820, K194A/K197A/R201A); assay: Protein-protein interaction assay MCL-1/Noxa BH3 peptide, TR-FRET (MCL-1 assay, Assay 1); type: binding; settings: MCL-1 Assay [M] (median), MBP-MCL-1 / Noxa BH3 peptide
Sequence of MCL-1 (Q07820 173-321 K194A/K197A/R201A, looked up): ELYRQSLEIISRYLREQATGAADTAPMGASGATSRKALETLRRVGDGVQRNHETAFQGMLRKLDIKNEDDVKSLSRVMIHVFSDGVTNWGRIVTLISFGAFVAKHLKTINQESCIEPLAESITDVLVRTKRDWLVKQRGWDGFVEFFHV
In short: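 TR-FRET competition between compounds and a biotin-PEG Noxa BH3 tracer for 1 nM MBP-MCL-1 (residues 173-321). Incubation was 1 h at 22 °C in the dark, then overnight at 4 °C, in 50 mM Tris pH 7 buffer with KF and DTT, after a 10-min compound pre-equilibration. Normalized ratios were fitted with a 4-parameter Hill equation to give IC50.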

MV-4-11 = assay: Anti-proliferative effect in MV-4-11 cells, CellTiter-Glo (Assay 7); type: cell-based; settings: MV-4-11, 72 hours incubation, CellTiter-Glo, several values per example, read-out: Antiproli MV-4-11
In short: as §3

Structure (SMILES)	IC50 (SUDHL5 [1]) [M]	IC50 (BCL-XL) [µM]	EC50 (SUDHL10 [2]) [M]	IC50 (AMO-1; Homo sapiens, AMO1, 72 h) [µM]	IC50 (A2780) [µM]	IC50 (SUDHL5 [3]) [M]	IC50 (BCL-2) [µM]	IC50 (SUDHL10 [4]) [M]	EC50 (SUDHL5 [5]) [M]	IC50 (MCL-1) [M]	IC50 (MV-4-11; Homo sapiens, MV4-11, 72 h) [µM]	IC50 (MV-4-11) [µM]	IC50 (AMO-1) [µM]
CCc1c2c(nn1C)COCc1ccccc1Cn1c(C(=O)O)c(CCCOc3cccc4c3CCCC4)c3ccc(F)c-2c31 (racemic) [Example 77, (rac)-14-Ethyl-15-fluoro-13-methyl-1-(3-((5,6,7,8-tetrahydronaphthalen-1-yl)oxy)propyl)-4,9,11,13-tetrahydrobenzo[3,4]pyrazolo[4′,3′:9,10][1]oxa[6]azacycloundecino[8,7,6-hi]indole-2-carboxylic Acid]	3e-06	> 20	8.4e-06	7.22	10.2	5.8e-06	12.6	6.2e-06	2.4e-06				
CCc1c2c(nn1C)COCc1ccccc1Cn1c(C(=O)O)c(CCCOc3cc(C)c(Cl)c(C)c3)c3ccc(F)c-2c31 (racemic) [Example 79, (rac)-1-(3-(4-Chloro-3,5-dimethylphenoxy)propyl)-14-15-fluoro-13-methyl-4,9,11,13-tetrahydrobenzo[3,4]pyrazolo[4′,3′:9,10][1]oxa[6]azacycloundecino[8,7,6-hi]indole-2-carboxylic Acid]	2.1e-06	19.6	1.3e-05		17	9.2e-06	15.6	1e-05	2.9e-06	2.6e-09	2.33		
Cc1nn(C)c2c1-c1c(F)ccc3c(CCCOc4cccc5c4CCC5)c(C(=O)O)n(c13)Cc1ccccc1COC2 (racemic) [Example 84, (rac)-1-(3-((2,3-Dihydro-1H-inden-4-yl)oxy)propyl)-15-fluoro-12,14-dimethyl-4,9,11,12-tetrahydrobenzo[3,4]pyrazolo[4′,3′:9,10][1]oxa[6]azacycloundecino[8,7,6-hi]indole-2-carboxylic Acid]	1.1e-05	> 20	2.7e-05		31	7.7e-06	> 20	2.2e-05	9.8e-06	6.2e-09	12.5		
CCc1nn(C)c2c1-c1c(F)ccc3c(CCCOc4cccc5c4CCC5)c(C(=O)O)n(c13)Cc1ccccc1COC2 (racemic) [Example 87, (rac)-1-(3-((2,3-Dihydro-1H-inden-4-yl)oxy)propyl)-14-ethyl-15-fluoro-12-methyl-4,9,11,12-tetrahydrobenzo[3,4]pyrazolo[4′,3′:9,10][1,6]oxaazacycloundecino[8,7,6-hi]indole-2-carboxylic Acid]	3.2e-06	> 20	9.4e-06	12.9		2.1e-06	13.7	6e-06	2.3e-06	4.5e-09	12.4	6.98	6.64
